# Legend:
# [1] = test system: SW620 (KRAS G12V/mRON Δ155); assay: Mechanism of action in SW620 overexpressing β-catenin (trypan blue exclusion, Western blotting); assay type: cell-based, human
# Procedure: Each of an empty vector and human beta-catenin pcDNA3.1 (Plasmid #16828, Addgene) that is a vector into which β-catenin DNA (X87838.1, GENE ID: 1499) is introduced, was transfected into the human colorectal cancer patient-derived cell line SW620 (KRAS G12V/mRON […]), and then treatment with the compound of Example 1 was performed. Subsequently, all cells were collected when 48 hours had elapsed. Cell death induction efficacy was compared and analyzed using a trypan blue exclusion assay. As described above, the cell line SW620 was caused to overexpress β-catenin. Then, treatment with the compound of Example 1 was performed, and cell death induction efficacy was observed. In addition, as described above, the cell line SW 620 was caused to overexpress β-catenin. Then, the sample treated with the compound of Example 1 was used to identify expressions of β-catenin, p-ERK, ERK, c-myc, cyclin D1, pTyr-mRON, mRON, and cleaved caspase 3 with Western blotting.
# [2] = test system: T84; assay: MTS assay, cytotoxicity on colorectal cancer cell line T84; assay type: cell-based; details: Homo sapiens, RON Δ165, KRAS G13D, 72 hours
# Procedure: (§1) MTS assay was performed to compare cytotoxicity of the compounds of Example 1, Example 2, Example 3, Example 4, Example 5, Example 6, and positive control 1 on a colorectal cancer cell line, and a cell death rate of the colorectal cancer cell line was analyzed to compare anticancer activity of the compounds.
# (§2) The MTS assay was performed by seeding each colorectal cell line in a 96-well plate at 1,000 cells per well, and after 24 hours, performing treatment with the compounds of Examples 1 to 6 and positive control 1 at various concentrations (0.000001 μM to 10 μM) in 100 μL of 10% FBS-RPMI medium (WELGENE Inc.) per well. The cells were incubated for 72 hours. Then, 20 μL of MTS solution (Promega) was added thereto, and the cells were incubated for 2 hours. Then, the absorbance was measured at 490 nm. The IC50 values for the compounds of Examples 1 to 6 and positive control 1 were calculated using GraphPad Prism™ 5 to investigate cytotoxicity.
# [3] = test system: DLD1; assay: MTS assay, cytotoxicity on colorectal cancer cell line DLD1; assay type: cell-based; details: Homo sapiens, DLD-1, RON wt, KRAS G13D, 72 hours
# Procedure: as §1, §2
# [4] = test system: SW620; assay: MTS assay, cytotoxicity on colorectal cancer cell line SW620; assay type: cell-based; details: Homo sapiens, SW-620, RON Δ155, KRAS G12V, 72 hours
# Procedure: as §1, §2
# [5] = test system: SNU-C2A; assay: Cell death induction, trypan blue cell counting, SNU-C2A; assay type: cell-based; details: SNUC2A with inactive RON; 1 μM; 48 hours; FIG. 1
# Procedure: (§3) Based on the results above, to identify the cell death-inducing ability of the compounds of Example 1 and positive control 1, which are representative materials, preparation was performed by seeding respective colorectal cancer cell lines SNU-[…], HCT8, T84, and SW620 onto 60-mm plates at 3×10^5 cells, and then incubation was performed for 24 hours. Thereafter, treatment with each of Example 1 and positive control 1 was performed at 1μM and incubation was performed for 48 hours. After 48 hours, the cells and cell suspensions were collected by treatment with trypsin, resuspended in 1× PBS and stained using a trypan blue solution (Sigma, cat# T8154). The stained cells were counted using a hemocytometer. Cell counting was repeated, and the mean and the standard deviation were calculated.
# [6] = test system: HCT8; assay: Cell death induction, trypan blue cell counting, HCT8; assay type: cell-based, human; details: HCT8 (pTyr-wtRON); 1 μM; 48 hours; FIG. 1
# Procedure: as §3
# [7] = test system: SW620 (KRAS G12V/mRON Δ155); assay: Cell line SW620-transplanted mouse model; assay type: in vivo, BALB/c nude mice
# Procedure: 5-Week-old female BALB/c nude mice were purchased and acclimatized for 1 week. Then, human colorectal cancer patient-derived cell line SW620 (KRAS
# G12V/mRON Δ155) at 5×10^6 cells/mouse was injected subcutaneously (100 μL) into the right dorsal side of the mice. The compound of Example 1 was orally administered when the tumor reached a size of about 100 mm^3. The drug was administered once a day for 4 weeks, and tumor size and mouse body weight were measured twice a week. After completion of the drug administration, the experimental animals were euthanized, and then the tumors were extracted and weighed for comparative analysis.
# A portion of the extracted tumor tissue was fixed in 10% formalin and processed into a paraffin block. Then, the block was made into sections. Staining of the slide was performed through immunochemical staining. Another portion of the extracted tumor tissue was subjected to lysis, and then Western blotting was used to identify changes in expression of respective proteins.
# [8] = immunochemical staining, FIG. 7
structure (smiles),measurement,setting,value
"CCOc1ccn(-c2ccc(F)cc2)c(=O)c1C(=O)Nc1ccc(Oc2ccnc3cc(-c4ccc(CN5CCOCC5)cn4)sc23)c(F)c1.Cl [Example 1, 4-ethoxy-N-[3-fluoro-4-({2-[5-(morpholinomethyl)pyridine-2-yl]thieno[3,2-b]pyridine-7-yl}oxy)phenyl]-1-(4-fluorophenyl)-2-oxo-1,2-dihydropyridine-3-carboxamide hydrochloride]",expression of pTyr-mRON,"[1]; SW620, empty vector or β-catenin overexpressed, Western blotting, FIG. 11",decreased by the compound of Example 1 regardless of β-catenin
same,cell death induction efficacy,"[1]; SW620 overexpressing β-catenin, 48 hours, trypan blue exclusion, FIG. 10",cell death induction efficacy of the compound was decreased
same,"expression of p-ERK, c-myc, and cyclin D1","[1]; SW620 transfected with the empty vector, Western blotting, FIG. 11",decreased
same,"expression of p-ERK, c-myc, and cyclin D1","[1]; SW620 with β-catenin overexpressed, Western blotting, FIG. 11",increased again
same,IC50,[2],350 nM
same,IC50,[3],240 nM
same,IC50,[4],320 nM
same,cell death induction efficacy,[5],no response
same,cell death induction efficacy,[6],cell-killing efficacy was exhibited
same,"Tumor growth inhibition (TGI, %)","[7]; 30 mg/kg, oral, once a day for 4 weeks",79.2 ± 2.2%
same,expression of cleaved caspase 3 in tumor tissue,[7]; [8],induced expression
same,expression of cyclin D1 (PD marker) in tumor tissue,[7]; [8],decreased expression
same,expression of pTyr-RON in tumor tissue,[7]; [8],decreased expression
same,tumor growth inhibitory efficacy,"[7]; oral, 4 weeks, Table 5, FIG. 5, FIG. 6",high tumor growth inhibitory efficacy

# — patent US20230099204A1, “PHARMACEUTICAL COMPOSITION FOR PREVENTION OR TREATMENT OF CANCER IN WHICH KRAS MUTATION AND ACTIVATED RON ARE PRESENT” (WELLMARKER BIO CO., LTD., priority 2020, published 2023)
